# “And” between values parts separate entries of the source, which are not always exact repeats. Identical values can stand only once. “Also recorded” adds a separate entry of the source. Like-named read-outs stand apart in the source and are kept apart here.
# Columns and labels:
# CYP2D6 [1] = target: T1, CYP2D6 (Homo sapiens, UniProt P10635); assay: biochemical
# [2] = system: SARS-CoV-2 full Spike wild-type (Wuhan-Hu-1) mediated cell-to-cell fusion; assay: cells; assay type: cell-based
# in vitro = settings: human
# in vivo = settings: female, Sprague Dawley, rat
# SARS-CoV-2 pseudovirus = assay: microbe, parasite or virus in culture; assay type: cell-based
# [3] = rat, in vivo
# SARS-CoV pseudovirus [4] = assay: microbe, parasite or virus in culture; assay type: cell-based; settings: Severe acute respiratory syndrome coronavirus, 293T/ACE2
# MERS-CoV pseudovirus [5] = assay: microbe, parasite or virus in culture; assay type: cell-based; settings: Middle East respiratory syndrome-related coronavirus, Huh-7
# CYP3A = CYP3A (Homo sapiens, UniProt P08684)
# MERS-CoV pseudovirus [6] = assay: microbe, parasite or virus in culture; assay type: cell-based; settings: Middle East respiratory syndrome-related coronavirus, MRC5
# CYP1A2 = CYP1A2 (Homo sapiens, UniProt P05177)
# [7] = system: SARS-CoV-2 (US_WA-1/2020); assay type: cell-based
# [8] = human, microsomes
# CYP2C9 = CYP2C9 (Homo sapiens, UniProt P11712)
# [9] = target: SARS-CoV-2 spike (active trimer) His-tag (Severe acute respiratory syndrome coronavirus 2, UniProt P0DTC2); assay type: binding
# CYP2C19 = CYP2C19 (Homo sapiens, UniProt P33261)
# CYP2D6 [10] = target: T1, CYP2D6
# CYP2C8 = CYP2C8 (Homo sapiens, UniProt P10632)
# SARS-CoV pseudovirus [11] = assay: microbe, parasite or virus in culture; assay type: cell-based; settings: Severe acute respiratory syndrome coronavirus, A549-ACE2
# [12] = pH 7.4
# CYP2B6 = CYP2B6 (Homo sapiens, UniProt P20813)
# [13] = female, Sprague Dawley, iv, 5 mg/kg
# Chain of CYP2C9 (P11712 whole entry): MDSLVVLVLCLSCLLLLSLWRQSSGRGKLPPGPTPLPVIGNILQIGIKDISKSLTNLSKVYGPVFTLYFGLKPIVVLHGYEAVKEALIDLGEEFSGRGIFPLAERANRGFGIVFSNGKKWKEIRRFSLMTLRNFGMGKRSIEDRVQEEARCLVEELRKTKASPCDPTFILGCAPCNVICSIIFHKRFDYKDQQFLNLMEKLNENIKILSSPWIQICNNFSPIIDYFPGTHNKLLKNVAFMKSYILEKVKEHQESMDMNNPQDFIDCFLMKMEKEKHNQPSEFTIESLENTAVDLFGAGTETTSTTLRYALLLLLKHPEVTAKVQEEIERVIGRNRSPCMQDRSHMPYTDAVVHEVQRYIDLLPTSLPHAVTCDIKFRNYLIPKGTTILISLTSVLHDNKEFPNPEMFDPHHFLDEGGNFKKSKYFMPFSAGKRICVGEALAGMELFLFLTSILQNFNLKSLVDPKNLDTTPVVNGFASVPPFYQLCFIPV
# Chain of CYP2B6 (P20813 whole entry): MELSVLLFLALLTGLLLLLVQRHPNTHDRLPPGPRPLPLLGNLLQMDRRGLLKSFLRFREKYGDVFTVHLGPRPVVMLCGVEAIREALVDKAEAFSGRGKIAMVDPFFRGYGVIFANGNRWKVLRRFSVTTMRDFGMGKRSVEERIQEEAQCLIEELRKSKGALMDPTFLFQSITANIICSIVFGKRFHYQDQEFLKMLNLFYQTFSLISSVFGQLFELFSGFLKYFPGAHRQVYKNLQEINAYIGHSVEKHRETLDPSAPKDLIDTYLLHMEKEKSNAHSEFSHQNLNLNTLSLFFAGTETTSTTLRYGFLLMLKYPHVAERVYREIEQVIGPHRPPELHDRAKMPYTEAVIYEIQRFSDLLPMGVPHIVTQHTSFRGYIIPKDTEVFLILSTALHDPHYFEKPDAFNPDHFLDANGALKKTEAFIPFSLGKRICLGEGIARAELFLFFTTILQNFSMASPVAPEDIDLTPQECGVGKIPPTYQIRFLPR
# Chain of CYP3A (P08684 2-503): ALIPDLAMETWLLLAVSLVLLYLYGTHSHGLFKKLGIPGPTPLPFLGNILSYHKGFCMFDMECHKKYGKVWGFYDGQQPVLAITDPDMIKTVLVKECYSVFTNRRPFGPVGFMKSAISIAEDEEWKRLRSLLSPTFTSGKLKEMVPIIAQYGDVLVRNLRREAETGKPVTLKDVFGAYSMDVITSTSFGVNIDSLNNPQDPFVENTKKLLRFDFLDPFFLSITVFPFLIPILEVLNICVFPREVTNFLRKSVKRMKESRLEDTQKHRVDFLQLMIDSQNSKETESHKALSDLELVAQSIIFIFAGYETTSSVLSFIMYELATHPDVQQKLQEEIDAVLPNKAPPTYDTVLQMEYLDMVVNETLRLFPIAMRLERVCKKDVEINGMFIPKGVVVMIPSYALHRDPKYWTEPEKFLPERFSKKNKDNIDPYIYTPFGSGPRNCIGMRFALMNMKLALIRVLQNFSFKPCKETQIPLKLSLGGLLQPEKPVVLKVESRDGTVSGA
# Chain of CYP2C8 (P10632 whole entry): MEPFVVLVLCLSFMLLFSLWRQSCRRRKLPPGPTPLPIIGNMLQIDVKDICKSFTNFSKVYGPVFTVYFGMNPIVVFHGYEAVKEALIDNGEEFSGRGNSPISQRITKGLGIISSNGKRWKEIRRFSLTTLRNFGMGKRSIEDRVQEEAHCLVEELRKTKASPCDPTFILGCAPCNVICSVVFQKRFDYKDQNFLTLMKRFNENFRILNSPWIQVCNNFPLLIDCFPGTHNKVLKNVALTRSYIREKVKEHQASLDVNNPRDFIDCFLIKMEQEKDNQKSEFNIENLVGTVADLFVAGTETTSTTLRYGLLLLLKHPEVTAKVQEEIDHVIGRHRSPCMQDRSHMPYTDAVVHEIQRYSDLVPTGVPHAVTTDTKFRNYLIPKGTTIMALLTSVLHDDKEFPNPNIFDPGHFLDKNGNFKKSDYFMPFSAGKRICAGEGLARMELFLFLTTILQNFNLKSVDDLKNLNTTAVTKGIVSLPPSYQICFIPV
# Chain of CYP2C19 (P33261 whole entry): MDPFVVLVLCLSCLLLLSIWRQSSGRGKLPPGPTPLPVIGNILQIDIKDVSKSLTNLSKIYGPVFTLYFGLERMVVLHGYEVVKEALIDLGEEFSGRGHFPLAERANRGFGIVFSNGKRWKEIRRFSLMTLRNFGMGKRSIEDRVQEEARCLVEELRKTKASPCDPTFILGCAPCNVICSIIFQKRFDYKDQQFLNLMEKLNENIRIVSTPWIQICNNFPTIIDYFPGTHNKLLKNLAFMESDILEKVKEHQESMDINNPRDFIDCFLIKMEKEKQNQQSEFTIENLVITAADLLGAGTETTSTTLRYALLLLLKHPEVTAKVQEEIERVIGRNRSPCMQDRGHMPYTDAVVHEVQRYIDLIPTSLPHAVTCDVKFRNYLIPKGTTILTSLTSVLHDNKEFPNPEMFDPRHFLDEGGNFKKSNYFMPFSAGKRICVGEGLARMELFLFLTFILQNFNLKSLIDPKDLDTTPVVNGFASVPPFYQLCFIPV
# Chain of CYP1A2 (P05177 whole entry): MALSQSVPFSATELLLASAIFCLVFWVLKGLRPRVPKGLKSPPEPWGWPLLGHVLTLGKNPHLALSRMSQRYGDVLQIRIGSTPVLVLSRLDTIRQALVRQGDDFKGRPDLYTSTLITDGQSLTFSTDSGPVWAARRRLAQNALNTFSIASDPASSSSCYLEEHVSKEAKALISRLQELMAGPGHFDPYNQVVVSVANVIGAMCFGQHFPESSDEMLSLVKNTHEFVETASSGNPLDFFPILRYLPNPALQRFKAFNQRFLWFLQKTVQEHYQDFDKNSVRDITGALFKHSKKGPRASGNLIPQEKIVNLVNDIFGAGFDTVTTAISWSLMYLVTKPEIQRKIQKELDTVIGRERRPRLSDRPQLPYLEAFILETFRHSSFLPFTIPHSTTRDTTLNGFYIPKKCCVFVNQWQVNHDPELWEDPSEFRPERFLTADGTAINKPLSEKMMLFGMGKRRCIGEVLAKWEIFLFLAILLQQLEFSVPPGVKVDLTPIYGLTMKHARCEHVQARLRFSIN
# T1 sequence (P10635 whole entry, the tested form may be a part): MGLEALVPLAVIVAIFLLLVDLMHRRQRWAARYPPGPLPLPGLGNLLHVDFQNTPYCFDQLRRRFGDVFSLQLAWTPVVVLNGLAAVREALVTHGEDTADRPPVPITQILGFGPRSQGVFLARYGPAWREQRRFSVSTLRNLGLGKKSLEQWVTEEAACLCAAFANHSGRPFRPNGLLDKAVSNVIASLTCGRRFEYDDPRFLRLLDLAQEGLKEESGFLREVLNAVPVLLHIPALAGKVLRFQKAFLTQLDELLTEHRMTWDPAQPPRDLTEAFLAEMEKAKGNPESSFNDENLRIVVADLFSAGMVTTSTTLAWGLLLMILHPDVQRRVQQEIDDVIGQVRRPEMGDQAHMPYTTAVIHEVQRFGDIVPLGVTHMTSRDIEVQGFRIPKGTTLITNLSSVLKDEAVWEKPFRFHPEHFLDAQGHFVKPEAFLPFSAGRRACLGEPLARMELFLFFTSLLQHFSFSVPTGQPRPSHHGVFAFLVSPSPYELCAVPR
compound,measurement,setting,value
"O=C(O)c1cc(-c2ccc(/C=C3\SC(=S)N(CCc4ccccc4)C3=O)o2)ccc1Cl [Compound 1, (Z)-2-Chloro-5-(5-((4-oxo-3-phenethyl-2-thioxothiazolidin-5-ylidene)methyl)furan-2-yl)benzoic acid]",IC50,CYP2D6 [1],> 10 µM
same,inhibition of SARS-CoV-2 mediated cell-to-cell fusion (in words),[2],potently inhibited the cell-to-cell fusion even at the lowest dose
same,inhibition at 0.25 µM,"[2]; Severe acute respiratory syndrome coronavirus 2, Jurkat, at 250 nM, read-out: inhibitory activity of SARS-CoV-2 mediated cell-to-cell fusion",62 to 79%
same,CC50,in vitro,37.5 ± 1 µM
same,AUC(0-t),"in vivo; iv, 5 mg/kg",37500 ng·h/mL
same,AUC(0-t),"in vivo; po, 10 mg/kg",12000 ng·h/mL
same,melting point,,348 to 350 °C
same,antiviral activity against SARS-CoV-2 pseudovirus (in words),SARS-CoV-2 pseudovirus,low nanomolar activity; also recorded: excellent antiviral activity; also recorded: low nM IC50
same,IC50,"SARS-CoV-2 pseudovirus; Severe acute respiratory syndrome-related coronavirus, read-out: IC50s against SARS-CoV-2 pseudovirus over the cell lines",0.0323 to 0.0634 µM
same,C0,[3]; [13],7407.25 ng/mL
same,CLobs,[3]; [13],0.00013 mg/kg/(ng/mL)/hr
same,MRT0-inf_obs,[3]; [13],4.02 h
same,Vss_obs,[3]; [13],0.00053 mg/kg/(ng/mL)
same,F %,"[3]; female, Sprague-Dawley",20.1%
same,MRT0-inf_obs,"[3]; female, Sprague-Dawley, po, 10 mg/kg",14.34 h
same,Vz/F_obs,"[3]; po, 10 mg/kg",0.01078 mg/kg/(ng/mL)
same,IC50,SARS-CoV pseudovirus [4],0.0138 to 0.017 µM
same,IC50,MERS-CoV pseudovirus [5],0.095 to 0.158 µM
same,CYP inhibition class,CYP3A,low (key: IC50 >10 μM (CYP inhibition low); <10 μM (CYP inhibition moderate); <3 μM (CYP inhibition high))
same,% of Control Enzyme Activity (n = 1),CYP3A; 0.0137 μM,96.7% and 96.6%
same,% of Control Enzyme Activity (n = 1),CYP3A; 0.0412 μM,97.0%
same,% of Control Enzyme Activity (n = 1),CYP3A; 0.123 μM,94.5% and 94.8%
same,% of Control Enzyme Activity (n = 1),"CYP3A; 0.370 μM, 0.37 µM",95.1% and 96.3%
same,% of Control Enzyme Activity (n = 1),CYP3A; 1.11 μM,95.9% and 94.6%
same,% of Control Enzyme Activity (n = 1),CYP3A; 3.33 μM,88.2% and 82.2%
same,% of Control Enzyme Activity (n = 1),CYP3A; 10 μM,61.6% and 59.9%
same,IC50,MERS-CoV pseudovirus [6],0.0765 to 0.123 µM
same,CYP inhibition class,CYP1A2,moderate (key: IC50 >10 μM (CYP inhibition low); <10 μM (CYP inhibition moderate); <3 μM (CYP inhibition high))
same,% of Control Enzyme Activity (n = 1),CYP1A2; 0.0137 μM,99.2%
same,% of Control Enzyme Activity (n = 1),CYP1A2; 0.0412 μM,96.7%
same,% of Control Enzyme Activity (n = 1),CYP1A2; 0.123 μM,93.8%
same,% of Control Enzyme Activity (n = 1),CYP1A2; 0.370 μM,92.2%
same,% of Control Enzyme Activity (n = 1),CYP1A2; 1.11 μM,89.8%
same,% of Control Enzyme Activity (n = 1),CYP1A2; 3.33 μM,69.5%
same,% of Control Enzyme Activity (n = 1),CYP1A2; 10 μM,41.3%
same,IC50,"CYP1A2; human, microsomes, pH 7.4",7.4 µM
same,IC100,[7],1.25 µM
same,clearance (in words),[8],low-clearance compound
same,CYP inhibition class,CYP2C9,moderate (key: IC50 >10 μM (CYP inhibition low); <10 μM (CYP inhibition moderate); <3 μM (CYP inhibition high))
same,% of Control Enzyme Activity (n = 1),CYP2C9; 0.0137 μM,99.4%
same,% of Control Enzyme Activity (n = 1),CYP2C9; 0.0412 μM,98.2%
same,% of Control Enzyme Activity (n = 1),CYP2C9; 0.123 μM,97.2%
same,% of Control Enzyme Activity (n = 1),CYP2C9; 0.370 μM,95.1%
same,% of Control Enzyme Activity (n = 1),CYP2C9; 1.11 μM,85.1%
same,% of Control Enzyme Activity (n = 1),CYP2C9; 3.33 μM,59.9%
same,% of Control Enzyme Activity (n = 1),CYP2C9; 10 μM,29.8%
same,IC50,"CYP2C9; human, microsomes, pH 7.4",5.01 µM
same,ka,[9],1040 M⁻¹ s⁻¹
same,CYP inhibition class,CYP2C19,moderate (key: IC50 >10 μM (CYP inhibition low); <10 μM (CYP inhibition moderate); <3 μM (CYP inhibition high))
same,% of Control Enzyme Activity (n = 1),CYP2C19; 0.0137 μM,103%
same,% of Control Enzyme Activity (n = 1),CYP2C19; 0.0412 μM,110%
same,% of Control Enzyme Activity (n = 1),CYP2C19; 0.123 μM,101%
same,% of Control Enzyme Activity (n = 1),CYP2C19; 0.370 μM,102%
same,% of Control Enzyme Activity (n = 1),CYP2C19; 1.11 μM,92.0%
same,% of Control Enzyme Activity (n = 1),CYP2C19; 3.33 μM,70.8%
same,% of Control Enzyme Activity (n = 1),CYP2C19; 10 μM,40.7%
same,IC50,"CYP2C19; human, microsomes, pH 7.4",7.31 µM
same,CYP inhibition class,CYP2D6 [10],low (key: IC50 >10 μM (CYP inhibition low); <10 μM (CYP inhibition moderate); <3 μM (CYP inhibition high))
same,% of Control Enzyme Activity (n = 1),CYP2D6 [10]; 0.0137 μM,95.8%
same,% of Control Enzyme Activity (n = 1),CYP2D6 [10]; 0.0412 μM,98.7%
same,% of Control Enzyme Activity (n = 1),CYP2D6 [10]; 0.123 μM,98.6%
same,% of Control Enzyme Activity (n = 1),CYP2D6 [10]; 0.370 μM,101%
same,% of Control Enzyme Activity (n = 1),CYP2D6 [10]; 1.11 μM,97.0%
same,% of Control Enzyme Activity (n = 1),CYP2D6 [10]; 3.33 μM,84.3%
same,% of Control Enzyme Activity (n = 1),CYP2D6 [10]; 10 μM,59.2%
same,CYP inhibition class,CYP2C8,high (key: IC50 >10 μM (CYP inhibition low); <10 μM (CYP inhibition moderate); <3 μM (CYP inhibition high))
same,% of Control Enzyme Activity (n = 1),CYP2C8; 0.0137 μM,102%
same,% of Control Enzyme Activity (n = 1),CYP2C8; 0.0412 μM,89.0%
same,% of Control Enzyme Activity (n = 1),CYP2C8; 0.123 μM,98.3%
same,% of Control Enzyme Activity (n = 1),CYP2C8; 1.11 μM,76.9%
same,% of Control Enzyme Activity (n = 1),CYP2C8; 3.33 μM,25.3%
same,% of Control Enzyme Activity (n = 1),CYP2C8; 10 μM,3.87%
same,IC50,"CYP2C8; human, microsomes, pH 7.4",2.08 µM
same,IC50,SARS-CoV pseudovirus [11],0.098 to 0.157 µM
same,"Solubility in Phosphate Buffer, Average",[12],4.72 µM
same,"Solubility in Phosphate Buffer, R1",[12],4.35 µM
same,CYP inhibition class,CYP2B6,moderate (key: IC50 >10 μM (CYP inhibition low); <10 μM (CYP inhibition moderate); <3 μM (CYP inhibition high))
same,% of Control Enzyme Activity (n = 1),CYP2B6; 0.0137 μM,97.5%
same,% of Control Enzyme Activity (n = 1),CYP2B6; 0.0412 μM,98.1%
same,% of Control Enzyme Activity (n = 1),CYP2B6; 0.123 μM,90.4%
same,% of Control Enzyme Activity (n = 1),CYP2B6; 0.370 μM,94.2%
same,% of Control Enzyme Activity (n = 1),CYP2B6; 1.11 μM,76.9%
same,% of Control Enzyme Activity (n = 1),CYP2B6; 3.33 μM,47.0%
same,% of Control Enzyme Activity (n = 1),CYP2B6; 10 μM,15.2%
same,IC50,"CYP2B6; human, microsomes, pH 7.4",3.19 µM
